Laboratory results published in patent US4331670A (priority 1979, dated 1982).

Legend:
Callosobruchus chinensis = experiment: Test 7: mortality of adults of Callosobruchus chinensis on film in Petri-dish; format: in vivo; settings: 400 μg per Petri-dish of 9 cm, 25° C., 24 hours, read-out: Percent mortality
Protocol: Each active ingredient was dissolved in acetone to prepare each solution having the specific concentration. 1 Ml. of the solution (400 μg. of each active ingredient) was uniformly adhered on the inner bottom surface of Petri-dish having a diameter of 9 cm to form a film. In the dish, 15 of adults of Callosobruchus chinensis were charged and the dish was covered with a cap and kept in a constant temperature chamber at 25° C. for 24 hours. Each percent mortality was calculated as that of Test 6.

Pyricularia orzae = experiment: whole plant or invertebrate; format: in vivo, Pyricularia orzae (rice plant, Chukyo Asahi); settings: in Oryza sativa, 120 h, read-out: Protective value
Rhizoctonia solani = experiment: whole plant or invertebrate; format: in vivo, Rhizoctonia solani (rice plant, Chukyo Asahi); settings: in Oryza sativa, 120 h, read-out: Preventive value
Plutella xylostella = experiment: Test 11: mortality of larvae of Plutella xylostella on treated cabbage leaf; format: in vivo; settings: foliar, 192 h, leaf dipped, emulsifiable concentrate Composition No. 3, eight days, read-out: Percent mortality
Text: Each emulsifiable concentrate of each active ingredient as Composition No. 3 was dispersed in water at a concentration of 800 ppm. Each leaf of cabbage was dipped into each emulsion for about 10 seconds and taken up and dried in air.
A wet filter paper was put in each Petri dish (diameter of 9 cm), and each treated leaf was put on the filter paper. Larvae of Plutella xylostella at 2nd to 3rd instar were charged and the dish was covered with a cap and kept in a constant temperature chamber with lighting at 28° C. Eight days after the charge, mortality was measured and each percent mortality was calculated.

Sphaerotheca fuliginea = experiment: whole plant or invertebrate; format: in vivo, Sphaerotheca fuliginea (cucumber plant, Suyo); settings: Podosphaera fuliginea, in Cucumis sativus, 240 h, read-out: Protective value
Botrytis cinerea = experiment: Test 9: protective value on cucumber inoculated with Botrytis cinerea; format: in vivo, Botrytis cinerea (cucumber plant, Suyo); settings: 72 h; for pest or weed control at 250 ppm: 10 ml sprayed, lesion length three days after inoculation
Protocol: In each unglazed pot having a diameter of 9 cm, cucumber plant (Suyo) was cultured. At one leaf stage, 10 ml. of each solution of each active ingredient having a concentration of 250 ppm was sprayed by a spray gun. After maintaining the pot in a green-house at 24° to 25° C. for one day, a disc (punched agar disc) obtained by culturing Botrytis cinerea on a potato-glucose-agar medium (PDA medium) was put on the leaf of cucumber to inoculate them. Three days after the inoculation, lengths of lesions were measured and each protective value was calculated as Test 2.
In accordance with the test, except the concentration of the active ingredient was decreased, the comparative tests of Compound No. 7 and Reference compound were carried out.

Tetranychus telarius (L) = experiment: Test 6: mortality of larvae and adults of Tetranychus telarius on kidney bean leaf; format: in vivo; settings: foliar, 72 h, leaf dipped, wettable powder of Composition No. 5, three days after treatment, read-out: Percent mortality
Protocol: Young seedling of kidney bean treated to cut off leaves except one primordial leaf was transplanted in a cup and about 30 of larvae and adults of Tetranychus telarius (L) were inoculated on the primordial leaf. This was dipped for 10 seconds in each solution obtained by diluting each wettable powder of Composition No. 5 containing each active ingredient with water at the concentration of 800 ppm and was dried in air and was kept in a constant temperature chamber with lighting at 28° C. Three days after the treatment, mortality was measured and each percent mortality was calculated as follows. [formula]

[1] = system: Collectotrichum lagenarium; experiment: Test 3: protective value on cucumber inoculated with Collectotrichum lagenarium; format: in vivo, Collectotrichum lagenarium (cucumber plant, Suyo); settings: 500 ppm, 10 ml sprayed; lesions six days after inoculation
Protocol: In each unglazed pot having a diameter of 9 cm, cucumber plant (Suyo) was cultured. At one leaf stage, 10 ml. of each solution of each active ingredient having a concentration of 500 ppm was sprayed by a spray gun. After maintaining the pot in a green-house at 24° to 25° C. for one day, each spore suspension of Collectotrichum lagenarium was sprayed. Six days after the inoculation, number of lesions on the first leaf of seedling was observed. The protective value was calculated as Test 1.

| Compound | mortality at 400 µg/dish (Callosobruchus chinensis) [%] | pest or weed control at 100 ppm (Pyricularia orzae) [%] | pest or weed control at 100 ppm (Rhizoctonia solani) [%] | mortality at 800 ppm (Plutella xylostella) [%] | mortality at 800 ppm (Tetranychus telarius (L)) [%] | also measured |
| --- | --- | --- | --- | --- | --- | --- |
| O=[N+]([O-])c1cc(C(F)(F)F)cc([N+](=O)[O-])c1Nc1ncc(C(F)(F)F)cc1Cl [Compound No. 2] | 100 | 100 | 100 | – | – | – |
| O=[N+]([O-])c1cc([N+](=O)[O-])c(Nc2ncc(Cl)cc2Br)c(C(F)(F)F)c1 [Compound No. 62] | 100 | – | 100 | 100 | – | pest or weed control at 100 ppm (Sphaerotheca fuliginea): 100% |
| O=[N+]([O-])c1ccc(Nc2c(Cl)c(F)nc(F)c2Cl)c(C(F)(F)F)c1 [Reference compound, N-(2,6-difluoro-3,5-dichloro-4-pyridyl)-N-(4-nitro-2-trifluoromethylphenyl)amine, reference compound] | – | – | – | 0 | 40 | pest or weed control at 62.5 ppm (Botrytis cinerea; 62.5 ppm): 0%; pest or weed control at 12.5 ppm (Pyricularia orzae): 0%; pest or weed control at 25 ppm (Pyricularia orzae): 0% |
| Cc1c(Cl)cnc(Nc2c([N+](=O)[O-])cc(C(F)(F)F)c(Cl)c2[N+](=O)[O-])c1Cl [compound 12] | – | 100 | – | – | – | Protective value [1]: 75% |
| O=[N+]([O-])c1cc(C(F)(F)F)cc([N+](=O)[O-])c1Nc1c(Cl)cncc1Cl [compound 15, N-(3,5-dichloro-4-pyridyl)-2,6-dinitro-4-trifluoromethylaniline] | – | 100 | 100 | 100 | 100 | pest or weed control at 500 ppm (Sphaerotheca fuliginea): 100% |
| O=[N+]([O-])c1cc(C(F)(F)F)c(Cl)c([N+](=O)[O-])c1Nc1ncc(C(F)(F)F)cc1Br [compound 21] | – | 100 | – | – | – | pest or weed control at 250 ppm (Botrytis cinerea): 100%; pest or weed control at 500 ppm (Sphaerotheca fuliginea): 100% |
| O=[N+]([O-])c1cc(C(F)(F)F)cc([N+](=O)[O-])c1Nc1ncc(C(F)(F)F)cc1Br [compound 22] | – | 100 | – | – | 100 | pest or weed control at 250 ppm (Botrytis cinerea): 100%; pest or weed control at 500 ppm (Sphaerotheca fuliginea): 100% |
| O=[N+]([O-])c1cc(C(F)(F)F)cc([N+](=O)[O-])c1Nc1ncc(Cl)cc1C(F)(F)F [compound 27] | – | 100 | – | – | 100 | – |
| O=[N+]([O-])c1cc(C(F)(F)F)cc([N+](=O)[O-])c1Nc1ncc(Br)cc1C(F)(F)F [compound 28] | – | 100 | – | – | 100 | – |
| O=[N+]([O-])c1cc(C(F)(F)F)c(Cl)c([N+](=O)[O-])c1Nc1ncc(Cl)cc1C(F)(F)F [compound 29] | – | 100 | 100 | 100 | 100 | pest or weed control at 250 ppm (Botrytis cinerea): 100% |
| O=[N+]([O-])c1cc(C(F)(F)F)c(Cl)c([N+](=O)[O-])c1Nc1nc(Cl)c(Br)cc1C(F)(F)F [compound 31] | – | – | 90 | – | – | pest or weed control at 500 ppm (Sphaerotheca fuliginea): 100% |
| O=[N+]([O-])c1cc(C(F)(F)F)cc([N+](=O)[O-])c1Nc1nc(Cl)c(C(F)(F)F)cc1Br [compound 32] | – | 100 | 100 | – | – | pest or weed control at 500 ppm (Sphaerotheca fuliginea): 100% |
| O=[N+]([O-])c1cc(C(F)(F)F)c(Cl)c([N+](=O)[O-])c1Nc1ncccc1C(F)(F)F [compound 36] | – | 100 | 92 | – | – | pest or weed control at 250 ppm (Botrytis cinerea): 96% |
| O=[N+]([O-])c1cc(C(F)(F)F)cc([N+](=O)[O-])c1Nc1ncccc1C(F)(F)F [compound 37] | – | 100 | 100 | – | 100 | pest or weed control at 250 ppm (Botrytis cinerea): 93% |
| COc1c(C(F)(F)F)cc([N+](=O)[O-])c(Nc2ncc(C(F)(F)F)cc2Cl)c1[N+](=O)[O-] [compound 39] | – | 100 | 100 | – | 100 | – |
| CCOc1c(C(F)(F)F)cc([N+](=O)[O-])c(Nc2ncc(C(F)(F)F)cc2Cl)c1[N+](=O)[O-] [compound 40, N-(3-chloro-5-trifluoromethyl-2-pyridyl)-2,6-dinitro-3-ethoxy-4-trifluoromethylaniline] | – | 100 | 100 | 100 | 100 | – |
| CCCOc1c(C(F)(F)F)cc([N+](=O)[O-])c(Nc2ncc(C(F)(F)F)cc2Cl)c1[N+](=O)[O-] [compound 41] | – | 95 | 95 | 100 | 100 | – |
| O=[N+]([O-])c1cc(C(F)(F)F)c(Oc2ccc(O)cc2)c([N+](=O)[O-])c1Nc1ncc(C(F)(F)F)cc1Cl [compound 49] | – | – | 100 | – | 100 | pest or weed control at 250 ppm (Botrytis cinerea): 100% |
| O=[N+]([O-])c1cc([N+](=O)[O-])c(Nc2ccc(Cl)cn2)c(C(F)(F)F)c1 [compound 52] | 100 | – | – | 100 | – | – |
| O=[N+]([O-])c1cc([N+](=O)[O-])c(Nc2ccc(Br)cn2)c(C(F)(F)F)c1 [compound 54] | 100 | – | 90 | – | – | pest or weed control at 50 ppm (Pyricularia orzae): 100% |
| O=[N+]([O-])c1cc([N+](=O)[O-])c(Nc2ncc(Cl)cc2Cl)c(C(F)(F)F)c1 [compound 60, N-(3,5-dichloro-2-pyridyl)-2,4-dinitro-6-trifluoromethylaniline] | 100 | – | 100 | 100 | – | pest or weed control at 50 ppm (Pyricularia orzae): 100% |
| O=[N+]([O-])c1cc([N+](=O)[O-])c(Nc2ncc(Br)cc2Br)c(C(F)(F)F)c1 [compound 61] | 100 | – | 100 | 100 | – | pest or weed control at 50 ppm (Pyricularia orzae): 100% |
| O=[N+]([O-])c1cc([N+](=O)[O-])c(Nc2ncc(Br)cc2Cl)c(C(F)(F)F)c1 [compound 63] | 100 | – | 100 | 100 | – | – |
| O=[N+]([O-])c1cc([N+](=O)[O-])c(Nc2ncc(C(F)(F)F)cc2Cl)c(C(F)(F)F)c1 [compound 65] | 100 | – | 100 | 100 | – | pest or weed control at 50 ppm (Pyricularia orzae): 100% |
| O=[N+]([O-])c1cc([N+](=O)[O-])c(Nc2nc(Cl)ccc2C(F)(F)F)c(C(F)(F)F)c1 [compound 66, N-(2-chloro-5-trifluoromethyl-6-pyridyl)-2,4-dinitro-6-trifluoromethylaniline] | – | – | – | 100 | – | pest or weed control at 100 ppm (Sphaerotheca fuliginea): 100% |
| O=[N+]([O-])c1cc([N+](=O)[O-])c(Nc2ccc(C(F)(F)F)c(Cl)n2)c(C(F)(F)F)c1 [compound 70] | 100 | – | – | 100 | – | – |
| Cc1nc(Nc2c([N+](=O)[O-])cc([N+](=O)[O-])cc2C(F)(F)F)c(Cl)c(C)c1Cl [compound 77, N-(3,5-dichloro-4,6-dimethyl-2-pyridyl)-2,4-dinitro-6-trifluoromethylaniline] | 100 | – | – | 100 | – | – |
| O=[N+]([O-])c1cc([N+](=O)[O-])c(Nc2ncccc2C(F)(F)F)c(C(F)(F)F)c1 [compound 81] | 100 | – | – | 100 | – | pest or weed control at 50 ppm (Pyricularia orzae): 100% |
| O=[N+]([O-])c1cc(C(F)(F)F)cc(C(F)(F)F)c1Nc1ncc(C(F)(F)F)cc1Cl [compound 89] | – | – | – | – | 100 | – |
| O=[N+]([O-])c1cc(C(F)(F)F)cc(C(F)(F)F)c1Nc1ncc(Cl)cc1Cl [compound 90] | – | – | – | – | 100 | – |
